# From patent US8721963B2, “Cold sterilization of tissue engineering scaffolds with compressed carbon dioxide” (University of South Carolina, priority 2010, dated 2014)
# Tests used:
# [1] = tested on: Escherichia coli (E. coli) (ATCC 15597); assay: Inactivation of E. coli embedded in model hydrogel by SC-CO2 treatment (plate counting); format: cell-based; settings: 27.6 MPa, 40° C., 4 hours
# Protocol: Staphylococcus aureus (S. aureus) (ATCC 25923) and Escherichia coli (E. coli) (ATCC 15597) were used as test microorganisms embedded in the hydrogel to investigate the bacteriocidal activity of pure SC-CO2 or SC-CO2+H2O2. Suspensions of S. aureus and E. coli were prepared for inoculation of the hydrogel. Cultures of these bacteria were preserved on DifcoTM […] soy agar and stored in Petri dishes inside of a refrigerator at 4° C. A fresh colony was transferred aseptically from the agar culture plate into a culture tube containing 30 g/L of sterile tryptone soy broth (TSB). The bacteria were grown to a logarithmic phase in the TSB at 35° C. for 24 hours (Cappuccino and Sherman 2001). A fresh bacterial culture was prepared before every experiment to ensure cell viability. […] A Petroff Hausser counting chamber was used to quantify the cfu count in the diluted samples. […] A pulverization procedure was followed to quantify the amount of bacteria in the inoculated hydrogel. […] The degree of killing was quantified with a standard plate counting technique. The log reduction of bacteria (S. aureus or E. coli) was calculated with equation (1), [formula] For use as negative controls, a quantified amount of inoculated hydrogel (with either S. aureus or E. coli) in a polyallomer centrifuge tube was immersed in a PolyScience laboratory temperature bath (model 9105) at 40° C. for 4 hours. […]
# B. pumilus spores = settings: 40° C., 27.58 MPa, 4 hours; cited from earlier work
# B. atrophaeus spores = settings: 40° C., 27.58 MPa, 4 hours; cited from earlier work
# [2] = tested on: Staphylococcus aureus (S. aureus) (ATCC 25923); assay: Inactivation of S. aureus embedded in model hydrogel by SC-CO2 treatment (plate counting); format: cell-based; settings: 27.6 MPa, 40° C.
# Protocol: Staphylococcus aureus (S. aureus) (ATCC 25923) and Escherichia coli (E. coli) (ATCC 15597) were used as test microorganisms embedded in the hydrogel to investigate the bacteriocidal activity of pure SC-CO2 or SC-CO2+H2O2. Suspensions of S. aureus and E. coli were prepared for inoculation of the hydrogel. Cultures of these bacteria were preserved on DifcoTM […] soy agar and stored in Petri dishes inside of a refrigerator at 4° C. A fresh colony was transferred aseptically from the agar culture plate into a culture tube containing 30 g/L of sterile tryptone soy broth (TSB). The bacteria were grown to a logarithmic phase in the TSB at 35° C. for 24 hours (Cappuccino and Sherman 2001). A fresh bacterial culture was prepared before every experiment to ensure cell viability. Both S. aureus and E. coli bacteria suspensions were diluted after incubation to a concentration of approximately 107 colony forming units per milliliter (cfu/mL). A Petroff Hausser counting chamber was used to quantify the cfu count in the diluted samples. Also, a standard plate counting technique was followed to verify the original number of cfu. The final number of S. aureus or E. coli generally ranged from 7.6×106 to 2.3×10^8 cfu/mL. The hydrogel was hydrated with the diluted bacteria suspension of either S. aureus or E. coli. For CO2 sterilization experiments, the model gel was hydrated with the diluted bacteria suspension. Typically, 0.1 g of dry powder (absorption capacity of 200 mL H2O/g) was hydrated with steam autoclaved DI water. The hydrated powder was left overnight inside of a refrigerator at 4° C. About 3 g of the completely incorporated hydrated gel were then transferred into a polyallomer centrifuge tube for the CO2 treatment, to be described subsequently. […] A pulverization procedure was followed to quantify the amount of bacteria in the inoculated hydrogel. Bacteria were dislodged from the gel by pulverizing in a Stomacher 400 Circulator (Seward Ltd., United Kingdom) for 10 minutes at 230 revolutions per minute (rpm). The degree of killing was quantified with a standard plate counting technique. The log reduction of bacteria (S. aureus or E. coli) was calculated with equation (1), [formula] For use as negative controls, a quantified amount of inoculated hydrogel (with either S. aureus or E. coli) in a polyallomer centrifuge tube was immersed in a PolyScience laboratory temperature bath (model 9105) at 40° C. for 4 hours. The inoculated hydrogel was removed from the bath, pulverized in the Stomacher 400, and the degree of killing was quantified using the standard plate counting technique.
# [3] = tested on: G. stearothermophilus spores; settings: 40° C., 27.58 MPa, 4 hours; cited from earlier work
structure (smiles),measurement,setting,value
"O=C=O [pure SC-CO2, carbon dioxide]",killing of E. coli,[1]; in hydrogel,Complete killing
same,average log-reduction of E. coli,[1]; in poly(acrylic acid-co-acrylamide) hydrogel,7.93 log
same,log reduction of B. pumilus spores,B. pumilus spores,6 log
same,log reduction of B. atrophaeus spores,B. atrophaeus spores,6 log
same,killing of S. aureus,"[2]; in hydrogel, 4 hours",Complete killing
same,D-value (D40) of S. aureus,[2]; in hydrogel,4.6 min
same,time required to obtain 6-log reduction of S. aureus,[2]; in hydrogel,about 27.4 minutes
same,log-reduction of S. aureus,"[2]; in hydrogel, 10 minutes",1.94 log
same,log-reduction of S. aureus,"[2]; in hydrogel, 15 minutes",3.42 log
same,log-reduction of S. aureus,"[2]; in hydrogel, 20 minutes",4.13 log
same,killing of S. aureus,"[2]; in hydrogel, 30 minutes",complete kill
same,killing of S. aureus,"[2]; in hydrogel, 60 minutes",complete kill
same,average log-reduction of S. aureus,"[2]; in poly(acrylic acid-co-acrylamide) hydrogel, 4 hours",7.72 log
same,log reduction of G. stearothermophilus spores,[3],6 log
